MIC data for five compounds are collected here from patent US7256187B2, “Rifamycin C-11 oxime derivatives effective against drug-resistant microbes” (Cumbre Pharmaceuticals Inc., priority 2004, dated 2007).

Holding throughout (type): cell-based
Assay [1] deals with Staphylococcus aureus ATCC29213. The assay is described as follows: MIC, microbroth dilution. To be noted: Staphylococcus aureus ATCC29213, rifS; read-out: Antimicrobial activity (MIC). On the technique in general: In broth dilution the organism is exposed to a series of concentrations in liquid medium.
The subject of assay [2] is Staphylococcus aureus ATCC29213 rpoB^D417Y. The assay is described as follows: microbe, parasite or virus in culture. To be noted: Staphylococcus aureus ATCC29213 rpoB^D417Y, rifR; read-out: Antimicrobial activity (MIC). On the procedure: (§1) Representative compounds were assayed for antimicrobial activity as follows: Minimum Inhibitory Concentrations (“MICs”) were determined by the microbroth dilution method as per NCCLS guidelines (National Committee for Clinical Laboratory Standards. 2000. Methods for dilution antimicrobial susceptibility tests for bacteria that grow aerobically, 5th ed. M7-A5. National Committee for Clinical Laboratory Standards, Wayne, Pa.), except that all growth incubations were conducted at 37° C. Bacterial cultures were tested in the following bacteriological media: S. aureus, S. epidermidis, and E. coli in Cation-Adjusted Mueller-Hinton Broth, S. pneumoniae in THY Broth supplemented with 1 mg/mL catalase under 5% CO2 atmosphere, S. pyogenes in THY Broth, E. faecalis in BHI Broth, H. influenzae in BHI Broth supplemented with 0.75 μL of 1 mg/mL NAD and 150 μL of 1 mg/ml hematin per 5 mL, and M. smegmatis in Middlebrook Broth plus ADC Enrichment.
(§2) S. aureus ATCC 29213 RpoB^H418Y is a rifampin-resistant strain with a mutation in the RpoB gene of RNA polymerase. […] S. aureus EN1252a gyrA^S84L grlA^S80F is a quinolone-resistant strain due to double gene mutations of DNA gyrase and topoisomerase IV.

The test system of assay [3] is Staphylococcus aureus ATCC29213 rpoB^H418Y. Briefly: microbe, parasite or virus in culture. To be noted: Staphylococcus aureus ATCC29213 rpoB^H418Y, rifR; read-out: Antimicrobial activity (MIC). On the procedure:
as §1, §2

For assay [4], the system named is Staphylococcus aureus EN1252a gyrA^S84L grlA^S80F. Briefly: microbe, parasite or virus in culture. To be noted: Staphylococcus aureus EN1252a gyrA^S84L grlA^S80F, cipR; read-out: Antimicrobial activity (MIC). The procedure:
as §1, §2

Assay [5] has as its system Staphylococcus epidermidis ATCC12228. The assay is described as follows: MIC, microbroth dilution. To be noted: Staphylococcus epidermidis ATCC12228, rifS; read-out: Antimicrobial activity (MIC).
Assay [6] concerns Streptococcus pneumoniae ATCC6303. The assay is described as follows: MIC, microbroth dilution. To be noted: Streptococcus pneumoniae ATCC6303, rifS; read-out: Antimicrobial activity (MIC).
Assay [7] has as its system Streptococcus pyogenes ATCC19615. Briefly: MIC, microbroth dilution. To be noted: Streptococcus pyogenes ATCC19615, rifS; read-out: Antimicrobial activity (MIC).
Assay [8] deals with Enterococcus faecalis ATCC29212. Briefly: MIC, microbroth dilution. To be noted: Enterococcus faecalis ATCC29212, rifS; read-out: Antimicrobial activity (MIC).
In assay [9] the test system is Haemophilus influenzae ATCC10211. Briefly: MIC, microbroth dilution. To be noted: Haemophilus influenzae ATCC10211, rifS; read-out: Antimicrobial activity (MIC).
Assay [10] relates to Escherichia coli ATCC25922. The assay is described as follows: MIC, microbroth dilution. To be noted: Escherichia coli ATCC25922, rifS; read-out: Antimicrobial activity (MIC).
The subject of assay [11] is Mycobacterium smegmatis ATCC700084. Briefly: MIC, microbroth dilution. To be noted: Mycolicibacterium smegmatis; Mycobacterium smegmatis ATCC700084, rifS; read-out: Antimicrobial activity (MIC).

≈ marks a conversion by molar mass, not a printed value.

For `COc1c(N2CCN(CCO/N=C3/c4c5c(C)c(O)c6c4C(=O)C=C(NC(=O)/C(C)=C\C=C\[C@H](C)[C@H](O)[C@@H](C)[C@@H](O)[C@@H](C)[C@H](OC(C)=O)[C@H](C)[C@@H](OC)/C=C/O[C@@]3(C)O5)C6=O)C(C)C2)c(F)cc2c(=O)c(C(=O)O)cn(C3CC3)c12` (stereo partly shown) [Example 13], the MIC fell in the range of 0.004 to 0.5 µg/mL (≈ 0.0036 to 0.45 µM) in [1]; 0.25 to 32 µg/mL (≈ 0.225 to 28.8 µM) in assay [2]; 0.125 to 16 µg/mL (≈ 0.112 to 14.4 µM) in [3]; 0.004 to 0.5 µg/mL (≈ 0.0036 to 0.45 µM) in assay [4]; 0.0005 to 0.063 µg/mL (≈ 0.00045 to 0.0566 µM) in assay [5]; 0.0002 to 0.125 µg/mL (≈ 0.00018 to 0.112 µM) in assay [6]. Further, the MIC in assay [7] lay within 0.0005 to 0.063 µg/mL (≈ 0.00045 to 0.0566 µM); in assay [8], 2 to 32 µg/mL (≈ 1.8 to 28.8 µM); in assay [9] it was 0.03 to 2 µg/mL (≈ 0.027 to 1.8 µM); in [10], 0.125 to 8 µg/mL (≈ 0.112 to 7.19 µM); in [11], 0.5 to 64 µg/mL (≈ 0.45 to 57.5 µM).

As to `CO[C@H]1/C=C/O[C@@]2(C)Oc3c(C)c(O)c4c(c3/C2=N/OCCN2CCN(c3cc5c(cc3F)c(=O)c(C(=O)O)cn5C3CC3)CC2)C(=O)C=C(NC(=O)/C(C)=C\C=C\[C@H](C)[C@H](O)[C@@H](C)[C@@H](O)[C@@H](C)[C@H](OC(C)=O)[C@@H]1C)C4=O` [Example 15], the MIC in assay [1] was in the range of 0.004 to 0.5 µg/mL (≈ 0.00374 to 0.468 µM); in assay [2], 0.25 to 32 µg/mL (≈ 0.234 to 30 µM); in [3] it was 0.125 to 16 µg/mL (≈ 0.117 to 15 µM); in assay [4], 0.004 to 0.5 µg/mL (≈ 0.00374 to 0.468 µM); in assay [5], 0.0005 to 0.063 µg/mL (≈ 0.000468 to 0.059 µM); in assay [6], 0.0002 to 0.125 µg/mL (≈ 0.000187 to 0.117 µM). In addition, the MIC in assay [7] fell in the range of 0.0005 to 0.063 µg/mL (≈ 0.000468 to 0.059 µM); in assay [8] it was 2 to 32 µg/mL (≈ 1.87 to 30 µM); in assay [9] it was 0.03 to 2 µg/mL (≈ 0.0281 to 1.87 µM); in [10], 0.125 to 8 µg/mL (≈ 0.117 to 7.49 µM); in assay [11], 0.5 to 64 µg/mL (≈ 0.468 to 59.9 µM).

Turning to `CO[C@H]1/C=C/O[C@@]2(C)Oc3c(C)c(O)c4c(c3/C2=N/OCCN2CCN(c3ccc(N5C[C@H](CNC(C)=O)OC5=O)cc3F)CC2)C(=O)C=C(NC(=O)/C(C)=C\C=C\[C@H](C)[C@H](O)[C@@H](C)[C@@H](O)[C@@H](C)[C@H](OC(C)=O)[C@@H]1C)C4=O` [Example 16], the MIC in assay [1] fell in the range of 0.004 to 0.5 µg/mL (≈ 0.00373 to 0.466 µM); in [2] it was 0.25 to 32 µg/mL (≈ 0.233 to 29.8 µM); in assay [3], 0.125 to 16 µg/mL (≈ 0.116 to 14.9 µM); in assay [4], 0.004 to 0.5 µg/mL (≈ 0.00373 to 0.466 µM); in assay [5] it was 0.0005 to 0.063 µg/mL (≈ 0.000466 to 0.0587 µM); in assay [6] it was 0.0002 to 0.125 µg/mL (≈ 0.000186 to 0.116 µM). Moreover, the MIC in assay [7] lay within 0.0005 to 0.063 µg/mL (≈ 0.000466 to 0.0587 µM); in assay [8], 2 to 32 µg/mL (≈ 1.86 to 29.8 µM); in assay [9], 0.03 to 2 µg/mL (≈ 0.028 to 1.86 µM); in assay [10], 0.125 to 8 µg/mL (≈ 0.116 to 7.45 µM); in assay [11], 0.5 to 64 µg/mL (≈ 0.466 to 59.6 µM).

In the case of `CO[C@H]1/C=C/O[C@@]2(C)Oc3c(C)c(O)c4c(c3/C2=N/OCCN2CCN(c3ccccn3)CC2)C(=O)C=C(NC(=O)/C(C)=C\C=C\[C@H](C)[C@H](O)[C@@H](C)[C@@H](O)[C@@H](C)[C@H](OC(C)=O)[C@@H]1C)C4=O` [Example 17], the MIC in assay [1] fell in the range of 0.004 to 0.5 µg/mL (≈ 0.00444 to 0.556 µM); in assay [2] it was 0.25 to 32 µg/mL (≈ 0.278 to 35.6 µM); in [3], 0.125 to 16 µg/mL (≈ 0.139 to 17.8 µM); in assay [4] it was 0.004 to 0.5 µg/mL (≈ 0.00444 to 0.556 µM); in [5], 0.0005 to 0.063 µg/mL (≈ 0.000556 to 0.07 µM); in assay [6] it was 0.0002 to 0.125 µg/mL (≈ 0.000222 to 0.139 µM). The MIC in assay [7] is 0.0005 to 0.063 µg/mL (≈ 0.000556 to 0.07 µM); in [8], 2 to 32 µg/mL (≈ 2.22 to 35.6 µM); in [9], 0.03 to 2 µg/mL (≈ 0.0333 to 2.22 µM); in assay [10], 0.125 to 8 µg/mL (≈ 0.139 to 8.89 µM); in assay [11], 0.5 to 64 µg/mL (≈ 0.556 to 71.1 µM).

As for `CO[C@H]1/C=C/O[C@@]2(C)Oc3c(C)c(O)c4c(c3/C2=N/OCCN2CCN(c3cccc(C(F)(F)F)c3)CC2)C(=O)C=C(NC(=O)/C(C)=C\C=C\[C@H](C)[C@H](O)[C@@H](C)[C@@H](O)[C@@H](C)[C@H](OC(C)=O)[C@@H]1C)C4=O` [Example 18, 11-Deoxy-11-{2-[4-(3-trifluoromethyl-phenyl)-piperazin-1-yl]ethoxyimino}rifamycin S], the MIC lay within 0.004 to 0.5 µg/mL (≈ 0.00414 to 0.517 µM) in assay [1]; 0.25 to 32 µg/mL (≈ 0.259 to 33.1 µM) in assay [2]; 0.125 to 16 µg/mL (≈ 0.129 to 16.5 µM) in assay [3]; 0.004 to 0.5 µg/mL (≈ 0.00414 to 0.517 µM) in assay [4]; 0.0005 to 0.063 µg/mL (≈ 0.000517 to 0.0651 µM) in [5]; 0.0002 to 0.125 µg/mL (≈ 0.000207 to 0.129 µM) in assay [6]. The MIC in assay [7] lay in the range of 0.0005 to 0.063 µg/mL (≈ 0.000517 to 0.0651 µM); in assay [8], 2 to 32 µg/mL (≈ 2.07 to 33.1 µM); in [9], 0.03 to 2 µg/mL (≈ 0.031 to 2.07 µM); in [10], 0.125 to 8 µg/mL (≈ 0.129 to 8.27 µM); in assay [11] it was 0.5 to 64 µg/mL (≈ 0.517 to 66.2 µM).
